Experimental data taken from patent US7842279B2, “F-18 peptides for pre targeted positron emission tomography imaging” (Immunomedics, Inc., priority 2005, dated 2010).

System: LS174T human colon adenocarcinoma
Assay: PET imaging of human colon cancer tissue in nude mice
Assay type: in vivo
Conditions: female athymic nu/nu mice, s.c. LS174T xenograft, 20 μCi i.v.
Description: A humanized MN-14 IgG antibody is prepared as described in U.S. Pat. No. 6,676,924. ^18F-labeled bisulfite addition complex is prepared as described in Example 8 and is linked to the humanized MN-14 IgG by reductive amination with sodium cyanoborohydride using standard techniques (see, e.g., Gray, 1978, Meth. Enzymol. 50:155-160.). Alternatively, an antibody or antibody fragment is directly labeled with [^18F]Fluorobenzaldehyde in the presence of hydroxylamine, thiosemicarbazide or hydrazine. Gel-permeation column chromatography is used to separated the 4-[^18F]Fluorobenzaldehyde/hMN-14 immunoconjugate from unconjugated 4-[^18F]Fluorobenzaldehyde bisulfite addition complex. The 4-[^18F]Fluorobenzaldehyde/hMN-14 immunoconjugate is used to localize human colon cancer tissue in nude mice. At 4-5 weeks female athymic mice (nu/nu, Harlan, Indianapolis, Ind.) are injected s.c. with 0.2 ml of a 10% suspension of LS174T human colon adenocarcinoma prepared from a xenograft serially propagated in an athymic mouse (Sharkey et al., Cancer Res., 50: 828-34 (1990)). After waiting 2 weeks for tumor development, the mice are injected i.v. with 20 μCi of 4-[^18F]Fluorobenzaldehyde/hMN-14 immunoconjugate. Tumor tissue is imaged by PET imaging, using standard ^18F detection methods.

4-[^18F]Fluorobenzaldehyde/hMN-14 immunoconjugate
tumor detection by PET imaging (F-18 distribution): detected as hot spots of F-18 distribution against a low-level background of F-18
